Numbers after ± are expanded uncertainties.

A short description of data set [1]: molar heat capacity at constant pressure. The following applies: 3000 kPa, Liquid, Flow calorimetry.
Data set [2] can be described thus: molar heat capacity at constant pressure; wn = mass fraction of the nth substance listed. The following applies: 3000 kPa, Liquid, Flow calorimetry, w1 = 1.

On to `N` [ammonia], for which the “molar heat capacity at constant pressure” value in data set [1] (304.17 K) is on record as 82.46 ± 0.53 J/K/mol; in data set [1] (314.14 K), 83.45 ± 0.53 J/K/mol; in data set [1] (324.11 K), 85.83 ± 0.53 J/K/mol; in data set [1] (334.09 K), 89.36 ± 0.53 J/K/mol.
As for `N` [ammonia] + N#C[S-].[Na+], the “molar heat capacity at constant pressure” value in data set [2] (304.17 K) was determined as 82.46 ± 0.53 J/K/mol; in data set [2] (314.14 K), 83.45 ± 0.53 J/K/mol; in data set [2] (324.11 K) it was 85.83 ± 0.53 J/K/mol; in data set [2] (334.09 K), 89.36 ± 0.53 J/K/mol.

Values taken from the NIST ThermoML archive (doi:10.1021/je200038n).
